Read-outs that look alike come from different tables or passages of the source.
What was measured:
[1] = target: T1, NEK2a (Homo sapiens, UniProt P51955); experiment: Kinase panel: NEK2a; type: biochemical, human/mammalian; settings: compound at 10 μM, read-out: % of activity respect of the control
T1 sequence (P51955 1-445): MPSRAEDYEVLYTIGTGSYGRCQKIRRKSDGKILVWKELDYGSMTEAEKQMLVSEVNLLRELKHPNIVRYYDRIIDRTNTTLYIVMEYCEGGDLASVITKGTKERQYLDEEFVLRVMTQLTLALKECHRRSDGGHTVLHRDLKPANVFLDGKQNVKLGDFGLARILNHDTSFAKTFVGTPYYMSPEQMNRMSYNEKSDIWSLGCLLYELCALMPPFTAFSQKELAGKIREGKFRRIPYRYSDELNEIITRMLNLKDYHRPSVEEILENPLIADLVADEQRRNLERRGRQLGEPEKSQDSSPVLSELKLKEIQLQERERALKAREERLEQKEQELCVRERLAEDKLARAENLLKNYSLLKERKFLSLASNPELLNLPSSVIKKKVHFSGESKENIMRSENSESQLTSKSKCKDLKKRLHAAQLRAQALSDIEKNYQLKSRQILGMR
Method: (§1) The DDU kinase-focused compound set contains lead-like scaffolds that are designed to target protein kinases; they have kinase hinge binding motifs. Four of the 1H-imidazopyrazinones were screened against a human/mammalian kinase panel at the University of Dundee (http://www.kinase-screen.mrc.ac.uk) at a concentration of 10 μM. At the time of testing the panel contained 79 mammalian kinases selected to provide a broad coverage of the mammalian kinome (∼500 kinases in the human genome).[3] None of the compounds were active against any of the kinases at 10 μM.

[2] = target: EPH A2 (Homo sapiens, UniProt P29317); experiment: Kinase panel: EPH A2; type: biochemical, human/mammalian; settings: compound at 10 μM, read-out: % of activity respect of the control
Chain of EPH A2 (P29317 24-976): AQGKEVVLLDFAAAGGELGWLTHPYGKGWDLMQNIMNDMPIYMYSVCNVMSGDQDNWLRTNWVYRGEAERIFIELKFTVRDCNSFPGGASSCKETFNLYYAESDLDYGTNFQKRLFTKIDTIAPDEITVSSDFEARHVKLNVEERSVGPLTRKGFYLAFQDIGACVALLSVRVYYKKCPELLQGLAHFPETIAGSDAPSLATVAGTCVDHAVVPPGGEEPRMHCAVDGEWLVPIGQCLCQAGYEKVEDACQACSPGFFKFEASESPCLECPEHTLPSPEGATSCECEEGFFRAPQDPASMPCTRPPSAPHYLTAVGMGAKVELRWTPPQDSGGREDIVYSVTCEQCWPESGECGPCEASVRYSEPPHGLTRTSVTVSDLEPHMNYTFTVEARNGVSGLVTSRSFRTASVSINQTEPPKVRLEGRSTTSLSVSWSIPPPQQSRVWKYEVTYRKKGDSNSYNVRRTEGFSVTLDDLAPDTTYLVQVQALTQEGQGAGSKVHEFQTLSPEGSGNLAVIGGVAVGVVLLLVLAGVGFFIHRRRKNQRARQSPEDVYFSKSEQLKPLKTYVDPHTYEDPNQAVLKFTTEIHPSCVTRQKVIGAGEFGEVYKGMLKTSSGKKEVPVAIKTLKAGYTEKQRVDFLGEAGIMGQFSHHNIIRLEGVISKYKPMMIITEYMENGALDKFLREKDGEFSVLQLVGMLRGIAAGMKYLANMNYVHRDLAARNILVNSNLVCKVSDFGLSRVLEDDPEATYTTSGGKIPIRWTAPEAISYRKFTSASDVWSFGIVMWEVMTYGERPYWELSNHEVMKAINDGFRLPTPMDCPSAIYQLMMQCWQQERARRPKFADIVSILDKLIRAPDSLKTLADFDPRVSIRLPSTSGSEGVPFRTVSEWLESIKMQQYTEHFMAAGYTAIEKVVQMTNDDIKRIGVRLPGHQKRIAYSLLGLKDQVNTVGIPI
Method: as §1

[3] = target: T2, PRAK (Homo sapiens, UniProt Q8IW41); experiment: Kinase panel: PRAK; type: biochemical, human/mammalian; settings: compound at 10 μM, read-out: % of activity respect of the control
T2 sequence (Q8IW41 1-473): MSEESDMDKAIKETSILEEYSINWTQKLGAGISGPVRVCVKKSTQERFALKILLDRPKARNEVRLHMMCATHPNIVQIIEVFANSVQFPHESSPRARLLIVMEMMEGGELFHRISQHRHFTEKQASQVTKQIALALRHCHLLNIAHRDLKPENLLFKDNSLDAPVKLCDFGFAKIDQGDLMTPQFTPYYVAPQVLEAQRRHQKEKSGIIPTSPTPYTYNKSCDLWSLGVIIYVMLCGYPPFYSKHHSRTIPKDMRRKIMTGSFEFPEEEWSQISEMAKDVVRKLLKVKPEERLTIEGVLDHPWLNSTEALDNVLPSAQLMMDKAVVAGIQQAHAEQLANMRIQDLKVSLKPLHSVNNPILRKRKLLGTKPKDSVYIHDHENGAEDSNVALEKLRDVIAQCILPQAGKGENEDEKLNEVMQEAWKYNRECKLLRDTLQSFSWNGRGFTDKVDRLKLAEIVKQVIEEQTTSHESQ
Method: as §1

[4] = target: CAMKKb (Homo sapiens, UniProt Q96RR4); experiment: Kinase panel: CAMKKb; type: biochemical, human/mammalian; settings: compound at 10 μM, read-out: % of activity respect of the control
Chain of CAMKKb (Q96RR4 whole entry): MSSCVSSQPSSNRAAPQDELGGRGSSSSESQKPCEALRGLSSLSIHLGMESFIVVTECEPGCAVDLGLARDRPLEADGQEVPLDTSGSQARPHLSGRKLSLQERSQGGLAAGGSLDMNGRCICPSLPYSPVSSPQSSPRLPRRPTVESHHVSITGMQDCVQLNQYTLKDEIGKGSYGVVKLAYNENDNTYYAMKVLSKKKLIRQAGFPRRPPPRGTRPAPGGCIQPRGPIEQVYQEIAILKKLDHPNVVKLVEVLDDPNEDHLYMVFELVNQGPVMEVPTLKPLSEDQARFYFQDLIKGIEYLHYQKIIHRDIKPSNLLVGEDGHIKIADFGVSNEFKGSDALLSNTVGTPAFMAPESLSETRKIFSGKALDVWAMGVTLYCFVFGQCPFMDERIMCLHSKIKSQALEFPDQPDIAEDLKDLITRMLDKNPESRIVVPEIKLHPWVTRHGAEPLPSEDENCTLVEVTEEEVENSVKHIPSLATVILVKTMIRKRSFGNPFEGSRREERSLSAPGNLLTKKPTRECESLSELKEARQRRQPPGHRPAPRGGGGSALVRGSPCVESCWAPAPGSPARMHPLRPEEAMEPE
Method: as §1

[5] = target: PIM1 (Homo sapiens, UniProt P11309); experiment: Kinase panel: PIM1; type: biochemical, human/mammalian; settings: compound at 10 μM, read-out: % of activity respect of the control
Chain of PIM1 (P11309 whole entry): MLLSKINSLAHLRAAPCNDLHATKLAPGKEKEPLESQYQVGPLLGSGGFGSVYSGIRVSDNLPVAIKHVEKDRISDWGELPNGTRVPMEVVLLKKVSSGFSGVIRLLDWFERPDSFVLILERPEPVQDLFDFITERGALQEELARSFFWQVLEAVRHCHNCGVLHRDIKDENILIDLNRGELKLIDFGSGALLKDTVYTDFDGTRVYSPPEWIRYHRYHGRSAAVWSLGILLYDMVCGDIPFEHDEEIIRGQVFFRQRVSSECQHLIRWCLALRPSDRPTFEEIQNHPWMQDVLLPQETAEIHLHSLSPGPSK
Method: as §1

[6] = system: MRC5 cells (human lung fibroblasts); experiment: MRC5 proliferation assay; type: cell-based; settings: geometric mean of two or more determinations
Method: (§2) Trypanosome and MRC5 proliferation assay: Measurement of inhibition of the proliferation of MRC5 cells (human lung fibroblasts) and T. brucei bloodstream-stage cells was performed using a modification of a cell viability assay previously described.[35, 36] Compounds ([…] to 0.5 nM) were incubated with 2×10^3 cells per well in 0.2 mL of the appropriate culture medium (MEM with 10 % foetal bovine serum for MRC5 cells) in clear 96-well plates. Plates were incubated at 37 °C in the presence of 5 % CO2 for 69 h. Resazurin was then added to a final concentration of 50 μM, and plates were incubated as above for a further 4 h before being read on a BioTek Flx800 fluorescence plate reader.

[7] = system: T. b. brucei; experiment: Trypanosome proliferation assay; type: cell-based, Trypanosoma brucei brucei; settings: geometric mean of two or more determinations, standard cell viability (resazurin) assay, read-out: EC50 T. b. brucei
Method: as §2

[8] = target: T3, DYRK2 (Homo sapiens, UniProt Q92630); experiment: Kinase panel: DYRK2; type: biochemical, human/mammalian; settings: compound at 10 μM, read-out: % of activity respect of the control
T3 sequence (Q92630 1-601): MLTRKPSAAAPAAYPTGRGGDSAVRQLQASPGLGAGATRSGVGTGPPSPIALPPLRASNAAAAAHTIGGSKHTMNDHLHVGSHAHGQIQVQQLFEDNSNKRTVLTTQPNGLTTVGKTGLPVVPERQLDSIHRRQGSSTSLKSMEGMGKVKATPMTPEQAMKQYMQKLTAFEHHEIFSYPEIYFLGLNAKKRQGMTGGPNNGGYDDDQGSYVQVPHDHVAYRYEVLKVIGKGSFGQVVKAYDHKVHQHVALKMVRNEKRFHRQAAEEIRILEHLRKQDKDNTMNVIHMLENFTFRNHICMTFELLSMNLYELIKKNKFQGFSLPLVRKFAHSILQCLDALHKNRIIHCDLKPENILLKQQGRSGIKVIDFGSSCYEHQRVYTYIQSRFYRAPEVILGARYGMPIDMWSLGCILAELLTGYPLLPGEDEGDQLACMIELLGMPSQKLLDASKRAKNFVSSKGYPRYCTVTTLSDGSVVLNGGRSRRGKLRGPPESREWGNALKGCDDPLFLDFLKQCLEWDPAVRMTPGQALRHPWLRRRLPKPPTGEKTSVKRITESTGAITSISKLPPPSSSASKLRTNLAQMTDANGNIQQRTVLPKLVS
Method: as §1

[9] = target: CSK (Homo sapiens, UniProt P41240); experiment: Kinase panel: CSK; type: biochemical, human/mammalian; settings: compound at 10 μM, read-out: % of activity respect of the control
Chain of CSK (P41240 whole entry): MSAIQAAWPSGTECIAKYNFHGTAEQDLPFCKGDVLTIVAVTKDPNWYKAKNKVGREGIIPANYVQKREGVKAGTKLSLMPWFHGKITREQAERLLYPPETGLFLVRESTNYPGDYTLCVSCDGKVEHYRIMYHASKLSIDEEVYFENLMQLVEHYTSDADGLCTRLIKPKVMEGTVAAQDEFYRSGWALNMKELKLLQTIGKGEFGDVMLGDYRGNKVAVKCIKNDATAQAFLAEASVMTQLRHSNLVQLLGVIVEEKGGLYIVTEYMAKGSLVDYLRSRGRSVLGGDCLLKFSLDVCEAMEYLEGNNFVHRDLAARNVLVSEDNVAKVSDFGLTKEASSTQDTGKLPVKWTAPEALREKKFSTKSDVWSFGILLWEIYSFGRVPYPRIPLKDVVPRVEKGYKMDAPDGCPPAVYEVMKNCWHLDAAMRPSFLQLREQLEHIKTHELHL
Method: as §1

[10] = target: Src (Homo sapiens, UniProt P12931); experiment: Kinase panel: Src; type: biochemical, human/mammalian; settings: compound at 10 μM, read-out: % of activity respect of the control
Chain of Src (P12931 whole entry): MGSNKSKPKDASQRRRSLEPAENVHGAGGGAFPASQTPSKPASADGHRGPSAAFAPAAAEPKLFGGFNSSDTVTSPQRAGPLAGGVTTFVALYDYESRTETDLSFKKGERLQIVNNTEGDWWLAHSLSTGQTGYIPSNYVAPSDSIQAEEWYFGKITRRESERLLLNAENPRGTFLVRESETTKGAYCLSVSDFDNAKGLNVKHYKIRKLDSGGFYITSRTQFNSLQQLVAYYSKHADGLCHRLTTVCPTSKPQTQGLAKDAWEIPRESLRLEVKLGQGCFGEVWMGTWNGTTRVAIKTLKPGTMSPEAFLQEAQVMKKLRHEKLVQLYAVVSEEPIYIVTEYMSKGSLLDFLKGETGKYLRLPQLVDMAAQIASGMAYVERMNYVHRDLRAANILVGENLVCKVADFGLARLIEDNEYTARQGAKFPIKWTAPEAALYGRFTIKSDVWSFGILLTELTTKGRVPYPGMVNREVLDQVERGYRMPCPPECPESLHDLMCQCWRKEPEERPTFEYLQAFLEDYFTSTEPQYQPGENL
Method: as §1

[11] = target: DYRK1A (Homo sapiens, UniProt Q13627); experiment: Kinase panel: DYRK1A; type: biochemical, human/mammalian; settings: compound at 10 μM, read-out: % of activity respect of the control
Method: as §1

[12] = target: MAPKAP-K2 (Homo sapiens, UniProt P49137); experiment: Kinase panel: MAPKAP-K2; type: biochemical, human/mammalian; settings: compound at 10 μM, read-out: % of activity respect of the control
Method: as §1

[13] = target: ROCK 2 (Homo sapiens, UniProt O75116); experiment: Kinase panel: ROCK 2; type: biochemical, human/mammalian; settings: compound at 10 μM, read-out: % of activity respect of the control
Chain of ROCK 2 (O75116 whole entry): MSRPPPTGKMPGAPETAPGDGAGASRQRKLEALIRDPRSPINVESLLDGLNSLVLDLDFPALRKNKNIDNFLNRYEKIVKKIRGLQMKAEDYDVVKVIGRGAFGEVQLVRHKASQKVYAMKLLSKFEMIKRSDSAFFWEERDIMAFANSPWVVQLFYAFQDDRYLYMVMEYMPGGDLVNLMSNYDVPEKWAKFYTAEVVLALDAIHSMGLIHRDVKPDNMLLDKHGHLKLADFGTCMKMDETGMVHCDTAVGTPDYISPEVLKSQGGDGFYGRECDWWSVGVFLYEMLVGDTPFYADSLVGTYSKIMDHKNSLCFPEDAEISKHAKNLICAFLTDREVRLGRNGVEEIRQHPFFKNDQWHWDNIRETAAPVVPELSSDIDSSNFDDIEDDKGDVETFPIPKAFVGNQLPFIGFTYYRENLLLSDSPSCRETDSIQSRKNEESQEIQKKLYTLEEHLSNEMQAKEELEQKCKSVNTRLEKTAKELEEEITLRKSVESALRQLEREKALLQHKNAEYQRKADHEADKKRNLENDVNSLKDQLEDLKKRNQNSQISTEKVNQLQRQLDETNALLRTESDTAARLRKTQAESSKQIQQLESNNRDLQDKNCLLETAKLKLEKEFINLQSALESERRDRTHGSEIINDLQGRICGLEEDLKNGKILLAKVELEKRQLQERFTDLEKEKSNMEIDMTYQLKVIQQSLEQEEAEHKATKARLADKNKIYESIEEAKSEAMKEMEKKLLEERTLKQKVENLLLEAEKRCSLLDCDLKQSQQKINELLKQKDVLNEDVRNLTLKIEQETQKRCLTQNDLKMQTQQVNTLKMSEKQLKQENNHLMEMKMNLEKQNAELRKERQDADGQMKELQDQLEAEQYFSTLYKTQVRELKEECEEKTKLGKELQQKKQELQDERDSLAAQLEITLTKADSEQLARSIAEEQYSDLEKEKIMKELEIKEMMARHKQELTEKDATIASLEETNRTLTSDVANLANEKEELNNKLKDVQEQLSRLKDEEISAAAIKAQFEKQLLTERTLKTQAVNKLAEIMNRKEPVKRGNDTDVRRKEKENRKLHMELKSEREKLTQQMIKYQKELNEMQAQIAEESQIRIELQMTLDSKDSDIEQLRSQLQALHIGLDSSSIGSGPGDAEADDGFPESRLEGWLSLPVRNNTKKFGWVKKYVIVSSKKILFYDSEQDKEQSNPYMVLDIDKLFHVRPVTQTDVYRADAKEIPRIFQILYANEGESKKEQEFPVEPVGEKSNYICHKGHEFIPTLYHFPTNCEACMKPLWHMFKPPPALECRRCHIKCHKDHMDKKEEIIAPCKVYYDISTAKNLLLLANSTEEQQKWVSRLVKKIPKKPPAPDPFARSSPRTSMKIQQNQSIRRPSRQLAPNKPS
Method: as §1

[14] = target: PLK1 (Homo sapiens, UniProt P53350); experiment: Kinase panel: PLK1; type: biochemical, human/mammalian; settings: compound at 10 μM, read-out: % of activity respect of the control
Chain of PLK1 (P53350 whole entry): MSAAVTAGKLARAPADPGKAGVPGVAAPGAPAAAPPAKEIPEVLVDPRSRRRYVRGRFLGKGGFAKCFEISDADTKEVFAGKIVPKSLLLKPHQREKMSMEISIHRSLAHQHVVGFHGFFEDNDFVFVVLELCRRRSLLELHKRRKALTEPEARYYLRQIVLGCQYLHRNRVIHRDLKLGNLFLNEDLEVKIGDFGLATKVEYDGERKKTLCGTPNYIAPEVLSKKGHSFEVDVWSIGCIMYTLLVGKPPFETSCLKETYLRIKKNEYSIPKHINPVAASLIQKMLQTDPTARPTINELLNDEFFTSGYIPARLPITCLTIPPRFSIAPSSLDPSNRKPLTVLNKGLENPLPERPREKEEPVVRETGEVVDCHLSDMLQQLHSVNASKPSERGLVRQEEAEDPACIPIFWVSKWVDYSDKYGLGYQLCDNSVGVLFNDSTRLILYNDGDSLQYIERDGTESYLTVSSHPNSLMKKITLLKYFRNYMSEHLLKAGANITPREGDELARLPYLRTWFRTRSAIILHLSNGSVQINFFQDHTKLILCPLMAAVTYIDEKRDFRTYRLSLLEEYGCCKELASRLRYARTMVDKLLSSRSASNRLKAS
Method: as §1

[15] = target: CDK2-Cyclin A (Homo sapiens, UniProt P24941); experiment: Kinase panel: CDK2-Cyclin A; type: biochemical, human/mammalian; settings: compound at 10 μM, read-out: % of activity respect of the control
Method: as §1

Structure (SMILES) | remaining activity at 10 µM [1] [%] | remaining activity at 10 µM [2] [%] | remaining activity at 10 µM [3] [%] | remaining activity at 10 µM [4] [%] | remaining activity at 10 µM [5] [%] | EC50 [6] [nM] | EC50 ([7]; Trypanosoma brucei) [nM] | remaining activity at 10 µM [8] [%] | remaining activity at 10 µM [9] [%] | remaining activity at 10 µM [10] [%] | remaining activity at 10 µM [11] [%] | remaining activity at 10 µM [12] [%] | remaining activity at 10 µM [13] [%] | remaining activity at 10 µM [14] [%] | remaining activity at 10 µM [15] [%] | EC50 [7] [nM]
CC(c1ccccc1)n1c(=O)[nH]c2ncc(-c3ccc(F)cc3)nc21 (stereo not drawn) [Compound 1] | 117 | 105 | 103 | 101 | 80 | > 50000 | 80 | 100 | 100 | 80 | 79 | 90 | 105 | 111 | 89 | 
O=c1[nH]c2ncc(-c3ccc(F)cc3)nc2n1CC1CC1 [Compound 10] | 101 | 96 | 99 | 98 | 79 | > 50000 | 300 | 94 | 93 | 98 | 113 | 104 | 78 | 102 | 82 | 
O=c1[nH]c2ncc(-c3ccc(F)cc3)nc2n1C1CCCCC1 [Compound 12, 1-Cyclohexyl-6-(4-fluorophenyl)-1H-imidazo[4,5-b]pyrazin-2(3H)-one] | 93 | 97 | 99 | 104 | 82 | > 50000 | 30 | 99 | 90 | 94 | 93 | 101 | 84 | 117 | 84 | 
C[C@H](c1ccccc1)n1c(=O)[nH]c2ncc(-c3ccccc3)nc21 [Compound 14, (R)-6-Phenyl-1-(1-phenylethyl)-1H-imidazo[4,5-b]pyrazin-2(3H)-one] | 96 | 89 | 98 | 86 | 72 | 26000 | 100 | 89 | 77 | 70 | 85 | 84 | 85 | 104 | 84 | 
O=c1[nH]c2ncc(-c3ccccc3CO)nc2n1C1CCCCC1 [Compound 28] |  |  |  |  |  | > 50000 | 50 |  |  |  |  |  |  |  |  | 46
